# According to patent US20250099458A1, “USE OF ANTI-IDIOPATHIC PULMONARY FIBROSIS DRUG NINTEDANIB IN TREATMENT OF TUBERCULOSIS” (Beijing Chest Hospital, Capital Medical University, priority 2022, published 2025):
# Key:
# H37Rv strain = test: In vitro activity on Mycobacterium tuberculosis (Alamar Blue MIC); format: cell-based; settings: H37Rv standard strain, 7H9 medium, 37° C. 7 d, Alamar Blue 24 h
# [1] = system: H37Rv in J774A.1 macrophages; test: Macrophage intracellular bactericidal activity; format: cell-based, Mycobacterium tuberculosis; settings: for CFU / log10 CFU: J774A.1, 72 h
# Protocol: The macrophage intracellular bactericidal activity is used to evaluate the anti-tuberculosis activities of BIBF1120 alone and BIBF1120+RFP in combination. The specific operating method includes: collecting J774A.1 macrophages into a 50 ml centrifuge tube, and taking 100 μl of macrophages and 900 μl of a cell culture medium, which are added into a 1.5 ml sterile centrifuge tube for 10-fold dilution; counting under a microscope; diluting macrophages to 4*10^5/ml and gently plating the macrophages into a 48-well clear microwell plate, with 1 ml in each well; culturing in an incubator with 5% of CO2 at 37° C. for 24 h after plating; co-culturing MOI=5:1 and 2*10^6 CFU/MLH37Rv with the macrophages; rinsing 2 times with sterile PBS 4 h later to remove extracellular Mycobacterium tuberculosis, and adding a new RPMI cell culture medium; putting into an incubator with 5% of CO2 at 37° C. and culturing for 72 h. discarding RPMI in the 48-well plate 3 days later, adding 200 μl of 0.1% SDS and placing in the incubator for 5 to 10 min, and adding 800 μl of the cell culture medium into each well and mixing well; and after cell lysis, taking 100 μl from each well for 10-, 100-, 1000-, 100000-fold dilution, and inoculating 100 μl on a 7H10 solid medium, spreading it evenly with a spreader and counting CFUs three weeks later.
# [2] = system: pulmonary and splenic Mycobacterium tuberculosis (H37Rv strain); format: in vivo, C57BL/6 female mice; settings: after 8 weeks of administration; BIBF1120 added to HRZ
Structure (SMILES),MIC (H37Rv strain) [µg/mL],"bacteriostatic effect administered alone ([1]; BIBF1120 alone, 25 ug/ml)","CFU ([1]; Table 1, BIBF1120 12.5 ug/ml)","log10 CFU ([1]; Table 1, BIBF1120 12.5 ug/ml)","CFU ([1]; Table 1, BIBF1120 25 ug/ml)","log10 CFU ([1]; Table 1, BIBF1120 25 ug/ml)","CFU ([1]; Table 1, BIBF1120 50 ug/ml)","log10 CFU ([1]; Table 1, BIBF1120 50 ug/ml)","CFU ([1]; Table 2, BIBF1120 25 ug/ml)","log10 CFU ([1]; Table 2, BIBF1120 25 ug/ml)",sterilizing of the spleen and the lung [2],"CFU ([1]; Table 1, RFP 2 ug/ml)","log10 CFU ([1]; Table 1, RFP 2 ug/ml)","CFU ([1]; Table 2, RFP 2 ug/ml)","log10 CFU ([1]; Table 2, RFP 2 ug/ml)"
"CCS(=O)(=O)O.COC(=O)c1ccc2c(c1)NC(=O)/C2=C(\Nc1ccc(N(C)C(=O)CN2CCN(C)CC2)cc1)c1ccccc1 [BIBF1120, Nintedanib]",24.6,no significant bacteriostatic effect,2400000,6.380,1462500,6.165,1077500,6.032,2750000,6.439,achieves sterilizing of the spleen and the lung,–,–,–,–
"CO[C@H]1/C=C/O[C@@]2(C)Oc3c(C)c(O)c4c(O)c(c(/C=N/N5CCN(C)CC5)c(O)c4c3C2=O)NC(=O)/C(C)=C\C=C\[C@H](C)[C@H](O)[C@@H](C)[C@@H](O)[C@@H](C)[C@H](OC(C)=O)[C@@H]1C [RFP, rifampicin]",–,–,–,–,–,–,–,–,–,–,–,502500,5.701,202500,5.306
